Where a name gives a salt, the structure may show the parent alone. Blank lines part the entries; values can stand above or below the compound they belong to.
Legend:
[1] = system: hBM-MSCs; assay: Oil Red O staining of lipid droplets in hBM-MSCs; format: cell-based, human; settings: compared with IDX control, 7th day
[2] = system: hBM-MSCs; assay: adiponectin production during adipogenesis in hBM-MSCs; settings: for adipogenesis in hBM-MSCs: compared to control; for adiponectin production during adipogenesis: compared to IDX control
[3] = biological target: T1, PPARδ (Homo sapiens, UniProt Q03181); assay: TR-FRET PPARδ corepressor assay; format: biochemical; settings: SMRT-ID2 peptide
T1 sequence (Q03181 211-439 limits assumed): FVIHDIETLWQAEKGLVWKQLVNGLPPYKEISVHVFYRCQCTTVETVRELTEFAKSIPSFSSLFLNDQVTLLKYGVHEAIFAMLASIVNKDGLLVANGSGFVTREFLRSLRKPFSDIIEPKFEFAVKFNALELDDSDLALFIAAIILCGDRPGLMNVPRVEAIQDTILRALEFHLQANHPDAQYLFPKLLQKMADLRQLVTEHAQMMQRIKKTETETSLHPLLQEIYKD

[4] = system: ANGPTL4 and PDK4 gene transcription; assay: Q-RT-PCR of ANGPTL4 and PDK4 mRNA in hBM-MSCs; format: cell-based, human; settings: 3rd day after induction of adipogenesis
[5] = biological target: T2, PPARγ (Homo sapiens, UniProt P37231); assay: TR-FRET competitive binding assay PPARγ; settings: concentration-response
T2 sequence (P37231 235-505 limits assumed): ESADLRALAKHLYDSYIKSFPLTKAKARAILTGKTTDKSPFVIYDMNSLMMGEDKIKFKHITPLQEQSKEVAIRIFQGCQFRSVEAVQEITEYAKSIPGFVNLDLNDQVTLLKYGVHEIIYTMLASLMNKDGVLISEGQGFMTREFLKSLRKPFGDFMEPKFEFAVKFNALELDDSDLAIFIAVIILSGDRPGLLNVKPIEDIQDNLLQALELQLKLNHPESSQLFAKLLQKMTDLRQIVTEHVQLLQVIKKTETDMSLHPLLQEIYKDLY

[6] = biological target: T3, PPARδ (Homo sapiens, UniProt Q03181); assay: TR-FRET competitive binding assay PPARδ; settings: concentration-response
T3 sequence (Q03181 1-441): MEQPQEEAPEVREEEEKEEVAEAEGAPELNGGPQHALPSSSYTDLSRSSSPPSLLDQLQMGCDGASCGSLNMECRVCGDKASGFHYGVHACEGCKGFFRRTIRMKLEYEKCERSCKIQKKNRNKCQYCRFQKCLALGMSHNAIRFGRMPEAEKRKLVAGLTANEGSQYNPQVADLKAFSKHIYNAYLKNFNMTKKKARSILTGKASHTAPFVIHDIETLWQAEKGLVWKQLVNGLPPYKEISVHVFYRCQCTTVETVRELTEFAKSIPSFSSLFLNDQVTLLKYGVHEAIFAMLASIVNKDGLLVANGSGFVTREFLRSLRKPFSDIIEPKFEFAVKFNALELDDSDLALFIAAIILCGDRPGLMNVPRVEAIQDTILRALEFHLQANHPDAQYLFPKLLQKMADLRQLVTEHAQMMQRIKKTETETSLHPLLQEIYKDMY

[7] = system: STZ-induced diabetic C57BL/6J mice; assay: STZ-induced diabetes mouse model; format: in vivo; settings: oral 20 mg/kg for 5 days, male C57BL/6J
[8] = biological target: T1, PPARδ; assay: TR-FRET PPARδ coactivator assay; format: biochemical; settings: compound alone
[9] = biological target: T4, PPARα (Homo sapiens, UniProt Q07869); assay: TR-FRET competitive binding assay PPARα; settings: up to 20 µM
T4 sequence (Q07869 200-468 limits assumed): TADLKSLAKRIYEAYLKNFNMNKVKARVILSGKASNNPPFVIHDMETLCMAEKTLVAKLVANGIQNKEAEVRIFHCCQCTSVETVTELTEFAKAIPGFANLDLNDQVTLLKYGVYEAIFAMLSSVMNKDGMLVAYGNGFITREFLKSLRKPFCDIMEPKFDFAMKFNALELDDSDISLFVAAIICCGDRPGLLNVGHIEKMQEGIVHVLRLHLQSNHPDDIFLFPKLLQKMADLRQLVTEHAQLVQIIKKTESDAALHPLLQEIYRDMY

[10] = system: human AR-transfected murine osteoblast precursor cell line 7F2; settings: cited from earlier work

SMILES: Cn1c(=O)c2c(ncn2C)n(C)c1=O [caffeine]
lipid droplets in differentiated adipocytes (ORO staining) [1]: decreased them | adipogenesis in hMSCs ([2]; 1 mM): inhibited adipogenesis

SMILES: CCCn1cc2c(nc(NC(=O)Nc3ccc(OC)cc3)n3nc(-c4ccco4)nc23)n1 [Compound 18, N-[2-(2-furanyl)-8-propyl-8H-pyrazolo[4,3-e][1,2,4]triazolo[1,5-c]pyrimidin-5-yl]-N′-(4-methoxyphenyl)-urea]
adipogenesis in hBM-MSCs [2]: no effect on adipogenesis

SMILES: O=C(NCCS(=O)(=O)c1ccc(C(F)(F)F)cn1)c1ccc(Cl)cc1 [Compound 24, 4-chloro-N-[2-[[5-(trifluoromethyl)-2-pyridinyl]sulfonyl]ethyl]benzamide]
interaction between PPARδ and corepressor peptide [3]: significantly promoted the recruitment of the corepressor peptide | ANGPTL4 mRNA level [4]: did not affect ANGPTL4 and PDK4 mRNA levels | PDK4 mRNA level [4]: did not affect ANGPTL4 and PDK4 mRNA levels

PPARγ binding activity [5]: showed PPARγ binding activity
SMILES: COc1ccc(Cl)cc1C(=O)NCCc1ccc(S(=O)(=O)NC(=O)NC2CCCCC2)cc1 [glibenclamide]

SMILES: CNC(=O)[C@H]1S[C@@H](n2cnc3c(NCc4cccc(I)c4)nc(Cl)nc32)[C@H](O)[C@@H]1O [Compound 1d]
PPARδ binding activity [6]: most potent inhibitor among A3 AR agonists

replacement of labeled PPARα ligand binding [9]: ≤ 50% | PPARγ binding activity [5]: very weak binding activity
SMILES: CNC(=O)[C@H]1S[C@@H](n2cnc3c(NCc4cccc(I)c4)ncnc32)[C@H](O)[C@@H]1O [Compound 1c]
interaction between PPARδ and corepressor peptide [3]: enhanced the interaction of PPARδ with the corepressor peptide | serum glucose levels [7]: significantly decreased serum glucose levels | serum triglyceride levels [7]: downregulated serum triglyceride levels | recruitment of labeled coactivator peptide to PPARδ [8]: no effect on the recruitment of the labeled coactivator peptide

SMILES: CCNC(=O)[C@H]1O[C@@H](n2cnc3c(N)ncnc32)[C@H](O)[C@@H]1O [Compound 15, 5′-(N-ethylcarboxamido) adenosine]
increase of adipocyte differentiation [10]: 20–30% | adiponectin production during adipogenesis [2]: no significant effect | adipogenesis in hBM-MSCs [2]: did not significantly promote adipogenesis

SMILES: CCNC(=O)[C@H]1O[C@@H](n2cnc3c(N)nc(NCCc4ccc(CCC(=O)O)cc4)nc32)[C@H](O)[C@@H]1O [Compound 16, 2-p-(2-carboxyethyl)phenethylamino-5′-N-ethylcarboxamidoadenosine hydrochloride hydrate]
adiponectin production during adipogenesis [2]: no significant effect

SMILES: Cc1cc(SCc2sc(-c3ccc(C(F)(F)F)cc3)nc2C)ccc1OCC(=O)O [Compound 22, 2-[2-methyl-4-[[[4-methyl-2-[4-(trifluoromethyl)phenyl]-5-thiazolyl]methyl]thio]phenoxy]acetic acid]
ANGPTL4 mRNA level [4]: significantly increased ANGPTL4 and PDK4 gene transcription | PDK4 mRNA level [4]: significantly increased ANGPTL4 and PDK4 gene transcription

SMILES: Nc1ncnc2c1ncn2[C@@H]1O[C@H](CO)[C@@H](O)[C@H]1O [adenosine]
adiponectin production during adipogenesis [2]: no significant effect

SMILES: CNC(=O)[C@@]12C[C@@H]1[C@@H](n1cnc3c(NCc4cccc(Cl)c4)nc(C#Cc4ccc(F)c(F)c4)nc31)[C@H](O)[C@@H]2O [Compound 17, (1S,2R,3S,4R,5S)-4-[6-[[(3-chlorophenyl)methyl]-amino]-2-[2-(3,4-difluorophenyl)ethynyl]-9H-purin-9-yl]-2,3-dihydroxy-N-methylbicyclo[3.1.0]hexane-1-carboxamide]
adipogenesis in hBM-MSCs [2]: no effect on adipogenesis

SMILES: OC[C@H]1O[C@@H](n2cnc3c(NC4CCCC4)nc(Cl)nc32)[C@H](O)[C@@H]1O [Compound 14, 2-chloro-N^6-cyclopentyladenosine]
increase of adipocyte differentiation [10]: 20–30% | adiponectin production during adipogenesis [2]: no significant effect | adipogenesis in hBM-MSCs [2]: did not significantly promote adipogenesis

SMILES: COC(=O)c1sccc1S(=O)(=O)Nc1ccc(Nc2ccccc2)cc1OC [Compound 23, 3-[[[2-methoxy-4-(phenylamino)phenyl]-amino]sulfonyl]-2-thiophenecarboxylic acid methyl ester]
ANGPTL4 mRNA level [4]: did not affect ANGPTL4 and PDK4 mRNA levels | PDK4 mRNA level [4]: did not affect ANGPTL4 and PDK4 mRNA levels

From paper PMC5956890 (Journal of medicinal chemistry, 2017)
